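GI50 is the concentration that inhibits growth by half. The concentration for full growth arrest is given as TGI.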
Experiments:
Test in all cases: growth of human tumour cells (NCI), 384-well format
HCT-116 colon = test system: HCT-116 colon
UACC-257 melanoma = test system: UACC-257 melanoma
MDA-MB-231 breast = test system: MDA-MB-231 breast
SNB-75 CNS = test system: SNB-75 CNS
HCT-15 colon = test system: HCT-15 colon
SK-MEL-2 melanoma = test system: SK-MEL-2 melanoma
SF-295 CNS = test system: SF-295 CNS
A498 renal = test system: A498 renal
OVCAR-8 ovarian = test system: OVCAR-8 ovarian
KM12 colon = test system: KM12 colon
HOP-62 NSCLC = test system: HOP-62 NSCLC
HOP-92 NSCLC = test system: HOP-92 NSCLC
HL-60(TB) leukemia = test system: HL-60(TB) leukemia
HS 578T breast = test system: HS 578T breast
DU-145 prostate = test system: DU-145 prostate
SN12C renal = test system: SN12C renal
K-562 leukemia = test system: K-562 leukemia
RPMI-8226 leukemia = test system: RPMI-8226 leukemia
MOLT-4 leukemia = test system: MOLT-4 leukemia
SK-OV-3 ovarian = test system: SK-OV-3 ovarian
786-0 renal = test system: 786-0 renal
BT-549 breast = test system: BT-549 breast
EKVX NSCLC = test system: EKVX NSCLC
SF-268 CNS = test system: SF-268 CNS
HT29 colon = test system: HT29 colon
ACHN renal = test system: ACHN renal
MDA-MB-468 breast = test system: MDA-MB-468 breast
CAKI-1 renal = test system: CAKI-1 renal
UACC-62 melanoma = test system: UACC-62 melanoma
U251 glioblastoma = test system: U251 glioblastoma
UO-31 renal = test system: UO-31 renal
SNB-19 CNS = test system: SNB-19 CNS
MCF7 breast = test system: MCF7 breast
T-47D breast = test system: T-47D breast
MDA-MB-435 melanoma = test system: MDA-MB-435 melanoma
NCI-H23 lung = test system: NCI-H23 lung
M14 melanoma = test system: M14 melanoma
LOX IMVI melanoma = test system: LOX IMVI melanoma
SK-MEL-28 melanoma = test system: SK-MEL-28 melanoma
IGROV1 ovarian = test system: IGROV1 ovarian
OVCAR-3 ovarian = test system: OVCAR-3 ovarian
MALME-3M melanoma = test system: MALME-3M melanoma
SW-620 colon = test system: SW-620 colon
OVCAR-4 ovarian = test system: OVCAR-4 ovarian
NCI-H322M lung = test system: NCI-H322M lung
NCI-H522 lung = test system: NCI-H522 lung
A549 NSCLC = test system: A549 NSCLC
NCI/ADR-RES ovarian = test system: NCI/ADR-RES ovarian
CCRF-CEM leukemia = test system: CCRF-CEM leukemia
RXF 393 renal = test system: RXF 393 renal
TK-10 renal = test system: TK-10 renal
PC-3 prostate = test system: PC-3 prostate
SF-539 CNS = test system: SF-539 CNS
NCI-H226 lung = test system: NCI-H226 lung
OVCAR-5 ovarian = test system: OVCAR-5 ovarian

## Cn1nnc2c(C(N)=O)ncn2c1=O
HCT-116 colon
  GI50: > 100 µM
  TGI: > 100 µM
UACC-257 melanoma
  GI50: > 100 µM
  TGI: > 100 µM
MDA-MB-231 breast
  GI50: > 100 µM
  TGI: > 100 µM
SNB-75 CNS
  GI50: > 100 µM
  TGI: > 100 µM
HCT-15 colon
  GI50: > 100 µM
  TGI: > 100 µM
SK-MEL-2 melanoma
  GI50: > 100 µM
  TGI: > 100 µM
SF-295 CNS
  GI50: > 100 µM
  TGI: > 100 µM
A498 renal
  GI50: > 100 µM
  TGI: > 100 µM
OVCAR-8 ovarian
  GI50: > 100 µM
  TGI: > 100 µM
KM12 colon
  GI50: > 100 µM
  TGI: > 100 µM
HOP-62 NSCLC
  GI50: > 100 µM
  TGI: > 100 µM
HOP-92 NSCLC
  GI50: > 100 µM
  TGI: > 100 µM
HL-60(TB) leukemia
  GI50: > 100 µM
  TGI: > 100 µM
HS 578T breast
  GI50: > 100 µM
  TGI: > 100 µM
DU-145 prostate
  GI50: > 100 µM
  TGI: > 100 µM
SN12C renal
  GI50: > 100 µM
  TGI: > 100 µM
K-562 leukemia
  GI50: > 100 µM
  TGI: > 100 µM
RPMI-8226 leukemia
  GI50: > 100 µM
  TGI: > 100 µM
MOLT-4 leukemia
  GI50: > 100 µM
  TGI: > 100 µM
SK-OV-3 ovarian
  GI50: > 100 µM
  TGI: > 100 µM
786-0 renal
  GI50: > 100 µM
  TGI: > 100 µM
BT-549 breast
  GI50: > 100 µM
  TGI: > 100 µM
EKVX NSCLC
  GI50: > 100 µM
  TGI: > 100 µM
SF-268 CNS
  GI50: > 100 µM
  TGI: > 100 µM
HT29 colon
  GI50: > 100 µM
  TGI: > 100 µM
ACHN renal
  GI50: > 100 µM
  TGI: > 100 µM
MDA-MB-468 breast
  GI50: > 100 µM
  TGI: > 100 µM
CAKI-1 renal
  GI50: > 100 µM
  TGI: > 100 µM
UACC-62 melanoma
  GI50: > 100 µM
  TGI: > 100 µM
U251 glioblastoma
  GI50: > 100 µM
  TGI: > 100 µM
UO-31 renal
  GI50: > 100 µM
  TGI: > 100 µM
SNB-19 CNS
  GI50: > 100 µM
  TGI: > 100 µM
MCF7 breast
  GI50: > 100 µM
  TGI: > 100 µM
T-47D breast
  GI50: > 100 µM
  TGI: > 100 µM
MDA-MB-435 melanoma
  GI50: > 100 µM
  TGI: > 100 µM
NCI-H23 lung
  GI50: > 100 µM
  TGI: > 100 µM
M14 melanoma
  GI50: > 100 µM
  TGI: > 100 µM
LOX IMVI melanoma
  GI50: > 100 µM
  TGI: > 100 µM
SK-MEL-28 melanoma
  GI50: > 100 µM
  TGI: > 100 µM
IGROV1 ovarian
  GI50: > 100 µM
  TGI: > 100 µM
OVCAR-3 ovarian
  GI50: > 100 µM
  TGI: > 100 µM
MALME-3M melanoma
  GI50: > 100 µM
  TGI: > 100 µM
SW-620 colon
  GI50: > 100 µM
  TGI: > 100 µM
OVCAR-4 ovarian
  GI50: > 100 µM
  TGI: > 100 µM
NCI-H322M lung
  GI50: > 100 µM
  TGI: > 100 µM
NCI-H522 lung
  GI50: > 100 µM
  TGI: > 100 µM
A549 NSCLC
  GI50: > 100 µM
  TGI: > 100 µM
NCI/ADR-RES ovarian
  GI50: > 100 µM
  TGI: > 100 µM
CCRF-CEM leukemia
  GI50: > 100 µM
  TGI: > 100 µM
RXF 393 renal
  GI50: > 100 µM
  TGI: > 100 µM
TK-10 renal
  GI50: > 100 µM
  TGI: > 100 µM
PC-3 prostate
  GI50: > 100 µM
  TGI: > 100 µM
SF-539 CNS
  GI50: > 100 µM
  TGI: > 100 µM
NCI-H226 lung
  GI50: > 100 µM
  TGI: > 100 µM
OVCAR-5 ovarian
  GI50: > 100 µM
  TGI: > 100 µM

Source: PubChem BioAssay (NCI)
